The source of these data is the NIST ThermoML archive (doi:10.1021/je800049b).

± gives the expanded uncertainty stated by the source.

The conditions of data set [1]: Crystal; DTA.
Data set [2] can be described thus: Molar enthalpy of transition or fusion. The settings on record: Crystal; DSC.

For the compound `O=P(O)(c1ccccc1)c1ccccc1` [diphenylphosphinic acid], the Normal melting temperature in data set [1] stood at 192.97 ± 0.5 °C. In addition, the “Molar enthalpy of transition or fusion” value in data set [2] came to 21.9 ± 0.65 kJ/mol.
